Experimental findings from patent publication US20220323455A1, “FUSED HETEROCYCLIC DERIVATIVES AS ANTIVIRAL AGENTS” (priority 2019, published 2022) are described below.

For orientation: EC50 means the midpoint of the concentration-response curve.

One assay relates to HBV. As to the kind of experiment: HBV replication inhibition assay (BDNA assay) in HepG2.2.15 cells. The conditions noted are these: 6 days, encapsidated HBV DNA in supernatant. The assay is classed as cell-based, Hepatitis B virus. The protocol:
HBV replication inhibition by the disclosed compounds were determined in cells infected or transfected with HBV or cells with stably integrated HBV, such as HepG2.2.15 cells (Sells et al. 1987). In this example, HepG2.2.15 cells were maintained in cell culture medium containing 10% fetal bovine serum (FBS), Geneticin, L-glutamine, penicillin and streptomycin. HepG2.2.15 cells were seeded in 96-well plates at a density of 40,000 cells/well and were treated with serially diluted compounds at a final DMSO concentration of 0.5% either alone or in combination by adding drugs in a checker box format. Cells were incubated with compounds for three days, after which medium was removed and fresh medium containing compounds was added to cells and incubated for another three days. At day 6, supernatant was removed and treated with DNase at 37° C. for 60 minutes, followed by enzyme inactivation at 75° C. for 15 minutes. Encapsidated HBV DNA was released from the virions and covalently linked HBV polymerase by incubating in lysis buffer (Affymetrix QS0010) containing 2.5 μg proteinase K at 50° C. for 40 minutes. HBV DNA was denatured by addition of 0.2 M NaOH and detected using a branched DNA (BDNA) QuantiGene assay kit according to manufacturer recommendation (Affymetrix). HBV DNA levels were also quantified using qPCR, based on amplification of encapsidated HBV DNA extraction with QuickExtraction Solution (Epicentre Biotechnologies) and amplification of HBV DNA using HBV specific PCR probes that can hybridize to HBV DNA and a fluorescently labeled probe for quantitation. In addition, cell viability of HepG2.2.15 cells incubated with test compounds alone or in combination was determined by using CellTitre-Glo reagent according to the manufacturer protocol (Promega). The mean background signal from wells containing only culture medium was subtracted from all other samples, and percent inhibition at each compound concentration was calculated by normalizing to signals from HepG2.2.15 cells treated with 0.5% DMSO using equation E1.
% inhibition(DMSOave−Xi)DMSOave×100% E1:
where DMSOave is the mean signal calculated from the wells that were treated with DMSO control (0% inhibition control) and Xi is the signal measured from the individual wells. EC50 values, effective concentrations that achieved 50% inhibitory effect, were determined by non-linear fitting using Graphpad Prism software (San Diego, Calif.) and equation E2.
Y=Ymin+(Ymax−Ymin)/(1+10(Log EC50−X)×HillSlope) E2:
where Y represents percent inhibition values and X represents the logarithm of compound concentrations.
Selected disclosed compounds were assayed in the HBV replication assay (BDNA assay), as described above, and a representative group of these active compounds is shown in Table 5.
As to `C[C@@H]1Cc2nn3c(c2CN1C(=O)Nc1ccc(F)c(C#N)c1)C(F)(F)CCC(F)(CO)C3` (single isomer, unassigned) [Example 114, (3R,8R*)—N-(3-Cyano-4-fluorophenyl)-8,11,11-trifluoro-8-(hydroxylmethyl)-3-methyl-3,4,8,9,10,11-hexahydro-1H-pyrido[4′,3′:3,4]pyrazolo[1,5-a]azepine-2(7H)-carboxamide], the EC50 was found to be 1 nM.

Turning to `N#Cc1c(F)ccc(NC(=O)N2CCc3nn4c(c3C2)C(F)(F)CCC(CO)C4)c1F` (single isomer, unassigned) [Example 25, (R*)—N-(3-Cyano-2,4-difluorophenyl)-11,11-difluoro-8-(hydroxymethyl)-3,4,8,9,10,11-hexahydro-1H-pyrido[4′,3′:3,4]pyrazolo[1,5-a]azepine-2(7H)-carboxamide], the EC50 amounted to 34 nM. Consider `C#CC1(O)CCC(F)(F)c2c3c(nn2C1)C[C@@H](C)N(C(=O)Nc1ccc(F)c(C#N)c1)C3` (single isomer, unassigned) [Example 95, (3R,8R*)—N-(3-Cyano-4-fluorophenyl)-8-ethynyl-11,11-difluoro-8-hydroxy-3-methyl-3,4,8,9,10,11-hexahydro-1H-pyrido[4′,3′:3,4]pyrazolo[1,5-a]azepine-2(7H)-carboxamide], for which the EC50 amounted to 13 nM. Same read-out and setting: under `N#Cc1cc(NC(=O)N2CCc3nn4c(c3C2)C(F)(F)CC(O)CC4)ccc1F` (single isomer, unassigned) [Example 138, (R*)—N-(3-Cyano-4-fluorophenyl)-11,11-difluoro-9-hydroxy-3,4,8,9,10,11-hexahydro-1H-pyrido[4′,3′:3,4]pyrazolo[1,5-a]azepine-2(7H)-carboxamide] stands 1 nM; under `O=C(Nc1ccnc(Br)c1F)N1CCc2nn3c(c2C1)C(F)(F)CCC(CO)C3` (single isomer, unassigned) [Example 26, (R*)—N-(2-Bromo-3-fluoropyridin-4-yl)-11,11-difluoro-8-(hydroxymethyl)-3,4,8,9,10,11-hexahydro-1H-pyrido[4′,3′:3,4]pyrazolo[1,5-a]azepine-2(7H)-carboxamide], 25 nM. Take `C[C@@H]1Cc2nn3c(c2CN1C(=O)Nc1ccc(F)c(C#N)c1)C(F)(F)CCC(F)(CO)C3` (single isomer, unassigned) [Example 111, (3R,8S*)—N-(3-Cyano-4-fluorophenyl)-8,11,11-trifluoro-8-(hydroxymethyl)-3-methyl-3,4,8,9,10,11-hexahydro-1H-pyrido[4′,3′:3,4]pyrazolo[1,5-a]azepine-2(7H)-carboxamide]: the EC50 came to 7 nM. The same measure, in the same setting: with `C#CC1(O)CCC(F)(F)c2c3c(nn2C1)C[C@@H](C)N(C(=O)Nc1ccnc(Br)c1F)C3` (single isomer, unassigned) [Example 96, (3R,8R*)—N-(2-Bromo-3-fluoropyridin-4-yl)-8-ethynyl-11,11-difluoro-8-hydroxy-3-methyl-3,4,8,9,10,11-hexahydro-1H-pyrido[4′,3′:3,4]pyrazolo[1,5-a]azepine-2(7H)-carboxamide] the figure was 35 nM. Still for that read-out and setting: with `C[C@@H]1Cc2nn3c(c2CN1C(=O)Nc1ccnc(C(F)F)c1F)C(F)(F)CC(O)CC3` (single isomer, unassigned) [Example 122, (3R,9R*)—N-(2-(Difluoromethyl)-3-fluoropyridin-4-yl)-11,11-difluoro-9-hydroxy-3-methyl-3,4,8,9,10,11-hexahydro-1H-pyrido[4′,3′:3,4]pyrazolo[1,5-a]azepine-2(7H)-carboxamide] the figure was 2 nM; with `C[C@@H]1Cc2nn3c(c2CN1C(=O)Nc1ccnc(Br)c1F)C(F)(F)CCC(F)(CO)C3` (single isomer, unassigned) [Example 112, (3R,8S*)—N-(2-Bromo-3-fluoropyridin-4-yl)-8,11,11-trifluoro-8-(hydroxymethyl)-3-methyl-3,4,8,9,10,11-hexahydro-1H-pyrido[4′,3′:3,4]pyrazolo[1,5-a]azepine-2(7H)-carboxamide], 45 nM. On the same count and under the same terms, under `N#CCC1(O)CCC(F)(F)c2c3c(nn2C1)CCN(C(=O)Nc1ccnc(Br)c1F)C3` (single isomer, unassigned) [Example 43, (S*)—N-(2-Bromo-3-fluoropyridin-4-yl)-8-(cyanomethyl)-11,11-difluoro-8-hydroxy-34,89,10,11-hexahydro-1H-pyrido[4′,3′:3,4]pyrazolo[1,5-a]azepine-2(7H)-carboxamide] stands 282 nM; under `N#Cc1cc(NC(=O)N2CCc3nn4c(c3C2)C(F)(F)CC(O)CC4)ccc1F` (single isomer, unassigned) [Example 141, (S*)—N-(3-Cyano-4-fluorophenyl)-11,11-difluoro-9-hydroxy-3,4,8,9,10,11-hexahydro-1H-pyrido[4′,3′:3,4]pyrazolo[1,5-a]azepine-2(7H)-carboxamide], 16 nM; under `C=CC1(O)CCC(F)(F)c2c3c(nn2C1)CCN(C(=O)Nc1ccc(F)c(C#N)c1)C3` (single isomer, unassigned) [Example 57, (S*)—N-(3-Cyano-4-fluorophenyl)-11,11-difluoro-8-hydroxy-8-vinyl-3,4,8,9,10,11-hexahydro-1H-pyrido[4′,3′:3,4]pyrazolo[1,5-a]azepine-2(7H)-carboxamide], 9 nM. On to `C[C@@H]1Cc2nn3c(c2CN1C(=O)Nc1ccnc(Br)c1F)C(F)(F)CC(O)CC3` (single isomer, unassigned) [Example 118, (3R,9R*)—N-(2-Bromo-3-fluoropyridin-4-yl)-11,11-difluoro-9-hydroxyl-3-methyl-3,4,8,9,10,11-hexahydro-1H-pyrido[4′,3′:3,4]pyrazolo[1,5-a]azepine-2(7H)-carboxamide], for which the EC50 was found to be 3 nM.

As to `C[C@@H]1Cc2nn3c(c2CN1C(=O)Nc1ccc(F)c(C#N)c1)C(F)(F)CC(O)(CF)CC3` (single isomer, unassigned) [Example 130, (3R,9S*)—N-(3-Cyano-4-fluorophenyl)-11,11-difluoro-9-(fluoromethyl)-9-hydroxy-3-methyl-3,4,8,9,10,11-hexahydro-1H-pyrido[4′,3′:3,4]pyrazolo[1,5-a]azepine-2(7H)-carboxamide], the EC50 stood at 2 nM. Turning to `O=C(Nc1ccnc(C(F)F)c1F)N1CCc2nn3c(c2C1)C(F)(F)CCC(O)(COCC(F)F)C3` (single isomer, unassigned) [Example 36, (S*)-8-((2,2-Difluoroethoxy)methyl)-N-(2-(difluoromethyl)-3-fluoropyridin-4-yl)-11,11-difluoro-8-hydroxy-3,4,8,9,10,11-hexahydro-1H-pyrido[4′,3′:3,4]pyrazolo[1,5-a]azepine-2(7H)-carboxamide], the EC50 was 39 nM. Same read-out and setting: with `N#CCC1(O)CCC(F)(F)c2c3c(nn2C1)CCN(C(=O)Nc1ccnc(C(F)F)c1F)C3` (single isomer, unassigned) [Example 44, (S*)-8-(Cyanomethyl)-N-(2-(difluoromethyl)-3-fluoropyridin-4-yl)-11,11-difluoro-8-hydroxy-3,4,8,9,10,11-hexahydro-1H-pyrido[4′,3′:3,4]pyrazolo[1,5-a]azepine-2(7H)-carboxamide] the figure was 333 nM.

The same assay, now with this note: Hepatitis B virus, HepG2.2.15, 144 h, 6 days, encapsidated HBV DNA in supernatant.
Turning to `CCC1(O)CCC(F)(F)c2c3c(nn2C1)CCN(C(=O)Nc1ccc(F)c(C#N)c1)C3` (single isomer, unassigned) [Example 61, (S*)—N-(3-Cyano-4-fluorophenyl)-8-ethyl-11,11-difluoro-8-hydroxy-3,4,8,9,10,11-hexahydro-1H-pyrido[4′,3′:3,4]pyrazolo[1,5-a]azepine-2(7H)-carboxamide], the EC50 came to 40 nM.
